# According to patent publication US8802597B2, “Herbicidal pyrimidines” (E I du Pont de Nemours and Company, priority 2003, dated 2014):
# Key:
# Assay in all cases: Test G pre/postemergence
# Format in all cases: in vivo
# [1] = system: Canada horseweed (Conyza canadensis)
# How it was run: (§1)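 Test chemicals in non-phytotoxic solvent with surfactant applied preemergence to sown seeds or nutlets and postemergence to plants 2–18 cm tall (1- to 4-leaf stage). Greenhouse-held 12–21 days, then visually rated against untreated controls on a 0 (no effect) to 100 (complete control) scale.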
# [2] = system: Russian thistle (Salsola kali); settings: Preemergence, scale 0-100
# How it was run: as §1
# [3] = system: Surinam grass (Brachiaria decumbens)
# How it was run: as §1
# [4] = system: bermudagrass (Cynodon dactylon)
# How it was run: as §1
# [5] = system: common groundsel (Senecio vulgaris)
# How it was run: as §1
# [6] = system: common purslane (Portulaca oleracea)
# How it was run: as §1
# [7] = system: common ragweed (Ambrosia elatior)
# How it was run: as §1
# [8] = system: dallisgrass (Paspalum dilatatum)
# How it was run: as §1
# [9] = system: guineagrass (Panicum maximum)
# How it was run: as §1
# [10] = system: itchgrass (Rottboellia cochinchinensis)
# How it was run: as §1
# kochia (Kochia scoparia) = system: kochia (Kochia scoparia)
# How it was run: as §1
# [11] = Postemergence, 250 g ai/ha, scale 0 to 100
# [12] = Postemergence, 16 g ai/ha, scale 0 to 100
# [13] = Postemergence, 31 g ai/ha, scale 0 to 100
# [14] = Postemergence, 62 g ai/ha, scale 0 to 100
# [15] = Postemergence, 125 g ai/ha, scale 0 to 100
# [16] = Preemergence, 16 g ai/ha, scale 0-100
# [17] = Preemergence, 31 g ai/ha, scale 0-100
# [18] = Preemergence, 62 g ai/ha, scale 0-100
# [19] = Preemergence, 125 g ai/ha, scale 0-100
# [20] = Preemergence, 250 g ai/ha, scale 0-100
structure (smiles),measurement,setting,value
"Nc1nc(C2CC2)nc(C(=O)[O-])c1Cl.[Na+] [Compound 77, 6-amino-5-chloro-2-cyclopropyl-4-pyrimidinecarboxylic acid monosodium salt]","Plant response rating, Horseweed",[1]; [11],80
same,"Plant response rating, Horseweed",[1]; [12],40
same,"Plant response rating, Horseweed",[1]; [13],50
same,"Plant response rating, Horseweed",[1]; [14],75
same,"Plant response rating, Horseweed",[1]; [15],80
same,"Plant response rating, Horseweed",[1]; [16],70
same,"Plant response rating, Horseweed",[1]; [17],90
same,"Plant response rating, Horseweed",[1]; [18],100
same,"Plant response rating, Horseweed",[1]; [19],100
same,"Plant response rating, Horseweed",[1]; [20],100
same,"Plant response rating, Russian Thistle",[2]; 16 g ai/ha,85
same,"Plant response rating, Russian Thistle",[2]; 62 g ai/ha,100
same,"Plant response rating, Russian Thistle",[2]; 250 g ai/ha,100
same,"Plant response rating, Surinam Grass",[3]; [11],70
same,"Plant response rating, Surinam Grass",[3]; [12],0
same,"Plant response rating, Surinam Grass",[3]; [13],10
same,"Plant response rating, Surinam Grass",[3]; [14],25
same,"Plant response rating, Surinam Grass",[3]; [15],65
same,"Plant response rating, Surinam Grass",[3]; [16],0
same,"Plant response rating, Surinam Grass",[3]; [17],5
same,"Plant response rating, Surinam Grass",[3]; [18],70
same,"Plant response rating, Surinam Grass",[3]; [19],90
same,"Plant response rating, Surinam Grass",[3]; [20],100
same,"Plant response rating, Bermudagrass",[4]; [11],50
same,"Plant response rating, Bermudagrass",[4]; [12],10
same,"Plant response rating, Bermudagrass",[4]; [13],20
same,"Plant response rating, Bermudagrass",[4]; [14],35
same,"Plant response rating, Bermudagrass",[4]; [15],35
same,"Plant response rating, Bermudagrass",[4]; [16],0
same,"Plant response rating, Bermudagrass",[4]; [17],0
same,"Plant response rating, Bermudagrass",[4]; [18],0
same,"Plant response rating, Bermudagrass",[4]; [19],10
same,"Plant response rating, Bermudagrass",[4]; [20],60
same,"Plant response rating, Groundsel",[5]; [11],100
same,"Plant response rating, Groundsel",[5]; [12],40
same,"Plant response rating, Groundsel",[5]; [13],75
same,"Plant response rating, Groundsel",[5]; [14],80
same,"Plant response rating, Groundsel",[5]; [15],95
same,"Plant response rating, Groundsel",[5]; [16],50
same,"Plant response rating, Groundsel",[5]; [17],60
same,"Plant response rating, Groundsel",[5]; [19],80
same,"Plant response rating, Groundsel",[5]; [20],100
same,"Plant response rating, Purslane",[6]; [11],85
same,"Plant response rating, Purslane",[6]; [12],20
same,"Plant response rating, Purslane",[6]; [13],20
same,"Plant response rating, Purslane",[6]; [14],60
same,"Plant response rating, Purslane",[6]; [15],70
same,"Plant response rating, Purslane",[6]; [16],45
same,"Plant response rating, Purslane",[6]; [17],60
same,"Plant response rating, Purslane",[6]; [18],75
same,"Plant response rating, Purslane",[6]; [19],100
same,"Plant response rating, Purslane",[6]; [20],100
same,"Plant response rating, Ragweed",[7]; [11],100
same,"Plant response rating, Ragweed",[7]; [12],75
same,"Plant response rating, Ragweed",[7]; [13],75
same,"Plant response rating, Ragweed",[7]; [14],95
same,"Plant response rating, Ragweed",[7]; [15],98
same,"Plant response rating, Ragweed",[7]; [16],80
same,"Plant response rating, Ragweed",[7]; [17],95
same,"Plant response rating, Ragweed",[7]; [18],100
same,"Plant response rating, Ragweed",[7]; [19],100
same,"Plant response rating, Ragweed",[7]; [20],100
same,"Plant response rating, Dallisgrass",[8]; [11],50
same,"Plant response rating, Dallisgrass",[8]; [12],0
same,"Plant response rating, Dallisgrass",[8]; [13],0
same,"Plant response rating, Dallisgrass",[8]; [14],15
same,"Plant response rating, Dallisgrass",[8]; [15],35
same,"Plant response rating, Dallisgrass",[8]; [16],0
same,"Plant response rating, Dallisgrass",[8]; [17],5
same,"Plant response rating, Dallisgrass",[8]; [18],15
same,"Plant response rating, Dallisgrass",[8]; [19],30
same,"Plant response rating, Dallisgrass",[8]; [20],85
same,"Plant response rating, Guineagrass",[9]; [11],75
same,"Plant response rating, Guineagrass",[9]; [12],0
same,"Plant response rating, Guineagrass",[9]; [13],0
same,"Plant response rating, Guineagrass",[9]; [14],65
same,"Plant response rating, Guineagrass",[9]; [15],65
same,"Plant response rating, Guineagrass",[9]; [16],30
same,"Plant response rating, Guineagrass",[9]; [17],70
same,"Plant response rating, Guineagrass",[9]; [18],85
same,"Plant response rating, Guineagrass",[9]; [19],85
same,"Plant response rating, Guineagrass",[9]; [20],95
same,"Plant response rating, Itchgrass",[10]; [11],80
same,"Plant response rating, Itchgrass",[10]; [12],0
same,"Plant response rating, Itchgrass",[10]; [13],35
same,"Plant response rating, Itchgrass",[10]; [14],65
same,"Plant response rating, Itchgrass",[10]; [15],70
same,"Plant response rating, Itchgrass",[10]; [16],0
same,"Plant response rating, Itchgrass",[10]; [17],10
same,"Plant response rating, Itchgrass",[10]; [18],45
same,"Plant response rating, Itchgrass",[10]; [19],85
same,"Plant response rating, Itchgrass",[10]; [20],90
same,"Plant response rating, Kochia",kochia (Kochia scoparia); [11],98
same,"Plant response rating, Kochia",kochia (Kochia scoparia); [12],90
same,"Plant response rating, Kochia",kochia (Kochia scoparia); [13],95
same,"Plant response rating, Kochia",kochia (Kochia scoparia); [14],98
same,"Plant response rating, Kochia",kochia (Kochia scoparia); [15],98
same,"Plant response rating, Kochia",kochia (Kochia scoparia); [16],85
same,"Plant response rating, Kochia",kochia (Kochia scoparia); [17],95
same,"Plant response rating, Kochia",kochia (Kochia scoparia); [18],95
same,"Plant response rating, Kochia",kochia (Kochia scoparia); [19],100
same,"Plant response rating, Kochia",kochia (Kochia scoparia); [20],100
